Kd data for 5 compounds are collected here from publication PMC10814857, “Functional Classification and Interaction Selectivity Landscape of the Human SH3 Domain Superfamily” (Cells, 2024).

pKd: −log10 of the molar value. Peptide text beside a SMILES is read from it.

Assay in all cases: Fluorescence polarization SH3 domain-PRP binding
Settings in all cases: FP, 0.2 µM fluorescein-labeled peptide, SH3 domain 0-200 µM, Tris/HCl pH 7.5, 25 °C, quadratic fit
On the technique in general: In fluorescence polarisation assays a small probe gives low polarisation when free and higher when bound to something large.

The target in assay [1] is T1, DLG2 SH3 domain (aa 536-606) (Homo sapiens, UniProt Q15700).
T1 construct: 536-606; GST (N); made in house; host or cells: Escherichia coli CodonPlus, Rosetta, BL21(DE3)
T1 sequence (Q15700 536-606): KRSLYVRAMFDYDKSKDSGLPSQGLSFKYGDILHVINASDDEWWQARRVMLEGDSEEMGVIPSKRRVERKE
On the procedure: (§1) The interaction between fluorescein-labeled proline-rich peptides (0.2 µM) and increasing concentrations of SH3 domains (ranging from 0 to 200 µM) was measured in a buffer (containing 30 mM Tris/HCl (pH 7.5), 5 mM MgCl2, and 3 mM DTT at 25 °C) in a total volume of 200 µL using a Fluoromax 4 fluorimeter in polarization mode and a quartz glass fluorescence cuvette (Hellma Ultra-Micro Cuvette 105.250-QS, Thermo Fisher Scientific, Waltham, MA USA). Excitation was performed at 470 nm and emission was measured at 560 nm. Dissociation constants (Kd) were determined by fitting the concentration-dependent binding curve to a quadratic ligand binding equation.
(§2) Fluorescence polarization measurements were performed to determine the binding affinities of SH3 domain–PRP interaction pairs from the dot blot analysis. SH3 proteins were titrated at increasing concentrations against fluorescent PRPs, which were kept at a constant concentration of 0.2 µM. GRB2-2^W193K, which is defective in the binding of PRPs such as RP1, was used as a negative control as previously described. […] The resulting data (Figure S6) allowed the evaluation of equilibrium dissociation constants (Kd) for 45 interactions between the SH3 domains and the PRPs (Figure 2B; Table S6).
(§3) Figure S6. Interactions of the SH3 domains with fluorescent PRPs measured by fluorescence polarization.
(§4) Fluorescent peptides (0.2 µM) were titrated with increasing concentrations of the corresponding SH3 domains.
(§5) GRB2-2W193K, defective in the binding of PRPs such as RP1, was used as a negative control as previously described. The x-axis represents SH3 domain concentrations as GST fusion proteins in µM, while the y-axis represents fluorescence polarization. The equilibrium dissociation constants (Kd) for the respective measurements were determined by fitting the titration curves to a quadratic ligand-binding equation (solid lines). All Kd values are […]
(§6) Error bars are derived from the fitting errors.
(§7) (1 picture or pasted object on this page, not shown here)

The target of assay [2] is T2, ITSN1-3 SH3 domain (aa 1002-1060) (Homo sapiens, UniProt Q15811).
T2 construct: 1002-1060; GST (N); made in house; host or cells: Escherichia coli CodonPlus, Rosetta, BL21(DE3)
T2 sequence (Q15811 1002-1060): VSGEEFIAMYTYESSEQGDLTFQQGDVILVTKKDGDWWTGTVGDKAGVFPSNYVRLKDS
On the procedure:
as §1, §2, §3, §4, §5, §6, §7

Assay [3] addresses T3, GRB2-2 SH3 domain (aa 158-215) (Homo sapiens, UniProt P62993).
T3 construct: 158-215; GST (N); made in house; host or cells: Escherichia coli CodonPlus, Rosetta, BL21(DE3)
As to the method: as §1, §2, §3, §4, §5, §6, §7

Assay [4] concerns the target T4, ARHGAP12 SH3 domain (aa 12-74) (Homo sapiens, UniProt Q8IWW6).
T4 construct: 12-74; GST (N); made in house; host or cells: Escherichia coli CodonPlus, Rosetta, BL21(DE3)
T4 sequence (Q8IWW6 12-74): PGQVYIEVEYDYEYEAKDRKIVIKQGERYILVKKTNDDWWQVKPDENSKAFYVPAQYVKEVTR
On the procedure: as §1, §2, §3, §4, §5, §6, §7

Assay [5] concerns the target T5, ABI1 SH3 domain (aa 446-505) (Homo sapiens, UniProt Q8IZP0).
T5 construct: 446-505; GST (N); made in house; host or cells: Escherichia coli CodonPlus, Rosetta, BL21(DE3)
As to the method:
as §1, §2, §3, §4, §5, §6, §7

Assay [6] addresses T6, BIN1 SH3 domain (aa 520-593) (Homo sapiens, UniProt O00499).
T6 construct: 520-593; GST (N); made in house; host or cells: Escherichia coli CodonPlus, Rosetta, BL21(DE3)
T6 sequence (O00499 520-593): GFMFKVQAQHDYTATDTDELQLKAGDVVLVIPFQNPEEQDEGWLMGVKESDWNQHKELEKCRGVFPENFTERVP
On the procedure:
as §1, §2, §3, §4, §5, §6, §7

Assay [7] deals with T7, ITSN1-1 SH3 domain (aa 740-806) (Homo sapiens, UniProt Q15811).
T7 construct: 740-806; GST (N); made in house; host or cells: Escherichia coli CodonPlus, Rosetta, BL21(DE3)
T7 sequence (Q15811 740-806): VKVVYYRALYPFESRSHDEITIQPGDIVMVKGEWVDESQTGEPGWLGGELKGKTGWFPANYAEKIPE
As to the method: as §1, §2, §3, §4, §5, §6, §7

The target in assay [8] is T8, ARHGEF30 (OBSCN) SH3 domain (aa 5600-5667) (Homo sapiens, UniProt Q5VST9).
T8 construct: 5600-5667; GST (N); made in house; host or cells: Escherichia coli CodonPlus, Rosetta, BL21(DE3)
T8 sequence (Q5VST9 5600-5667): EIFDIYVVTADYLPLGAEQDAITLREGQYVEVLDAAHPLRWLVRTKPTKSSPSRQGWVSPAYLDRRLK
As to the method: as §1, §2, §3, §4, §5, §6, §7

Assay [9] deals with T9, ITSN1-2 SH3 domain (aa 913-971) (Homo sapiens, UniProt Q15811).
T9 construct: 913-971; GST (N); made in house; host or cells: Escherichia coli CodonPlus, Rosetta, BL21(DE3)
T9 sequence (Q15811 913-971): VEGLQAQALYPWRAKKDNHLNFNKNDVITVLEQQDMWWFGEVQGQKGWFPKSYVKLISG
On the procedure:
as §1, §2, §3, §4, §5, §6, §7

The target of assay [10] is T10, ABL2 SH3 domain (aa 107-167) (Homo sapiens, UniProt P42684).
T10 construct: 107-167; GST (N); made in house; host or cells: Escherichia coli CodonPlus, Rosetta, BL21(DE3)
T10 sequence (P42684 107-167): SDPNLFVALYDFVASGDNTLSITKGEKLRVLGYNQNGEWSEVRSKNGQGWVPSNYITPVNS
As to the method:
as §1, §2, §3, §4, §5, §6, §7

Assay [11] deals with T11, CRK-1 SH3 domain (aa 132-192) (Homo sapiens, UniProt P46108).
T11 construct: 132-192; GST (N); made in house; host or cells: Escherichia coli CodonPlus, Rosetta, BL21(DE3)
T11 sequence (P46108 132-192): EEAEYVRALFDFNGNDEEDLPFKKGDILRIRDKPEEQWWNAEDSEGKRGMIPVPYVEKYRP
As to the method: as §1, §2, §3, §4, §5, §6, §7

The target of assay [12] is T12, GRB2-1 SH3 domain (aa 1-58) (Homo sapiens, UniProt P62993).
T12 construct: 1-58; GST (N); made in house; host or cells: Escherichia coli CodonPlus, Rosetta, BL21(DE3)
T12 sequence (P62993 1-58): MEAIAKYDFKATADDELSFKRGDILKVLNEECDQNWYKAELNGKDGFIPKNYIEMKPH
On the procedure:
as §1, §2, §3, §4, §5, §6, §7

T3 sequence (P62993 158-215): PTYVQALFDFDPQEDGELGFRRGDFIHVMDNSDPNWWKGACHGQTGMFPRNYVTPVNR
T5 sequence (Q8IZP0 446-505): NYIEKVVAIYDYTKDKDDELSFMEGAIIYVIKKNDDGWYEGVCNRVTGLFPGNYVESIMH

A word on the pKd: it is the Kd on a negative log10 scale, so that one unit is a factor of ten. The low end stands for a large Kd, the high end for a small Kd. Take `CC[C@H](C)[C@H](NC(=O)[C@H](C)NC(=O)[C@@H]1CCCN1C(=O)[C@@H]1CCCN1C(=O)[C@H](CO)NC(=O)[C@H](CC(=O)O)NC(=O)[C@@H](N)CC(C)C)C(=O)N1CCC[C@H]1C(=O)N1CCC[C@H]1C(=O)N[C@@H](CCCNC(=N)N)C(=O)N[C@@H](CCC(N)=O)C(=O)N1CCC[C@H]1C(=O)N[C@H](C(=O)N[C@@H](CO)C(=O)N[C@@H](CCCCN)C(=O)O)[C@@H](C)O` [Peptide P4] (H-LDSPPAIPPRQPTSK-OH): the pKd in assay [1] was < 3.70; in assay [2] it was < 3.70; in assay [3], 4.70; in assay [4], < 3.70; in assay [5] it was 4.61; in assay [6] it was < 3.70. Also, the pKd in assay [7] was 5.18; in [8], < 3.70; in assay [9], < 3.70; in assay [10], 3.90; in assay [11] it was < 3.70; in assay [12] it was 4.22.
As to `CC(C)C[C@H](NC(=O)[C@@H]1CCCN1C(=O)[C@@H](NC(=O)[C@H](CCCNC(=N)N)NC(=O)[C@@H]1CCCN1C(=O)[C@H](CO)NC(=O)[C@H](CC(N)=O)NC(=O)[C@@H]1CCCN1C(=O)[C@H](C)NC(=O)[C@@H](N)CO)[C@@H](C)O)C(=O)N[C@H](C(=O)N1CCC[C@H]1C(=O)N1CCC[C@H]1C(=O)N1CCC[C@H]1C(=O)N[C@@H](C)C(=O)N[C@@H](CO)C(=O)O)[C@@H](C)O` [Peptide P1] (H-SAPNSPRTPLTPPPAS-OH), the pKd in assay [1], in assay [2], in [3], in [4], in assay [5] and in assay [6] was < 3.70 in each case. Moreover, the pKd in [7], in assay [8], in assay [9], in assay [10], in assay [11] and in [12] was < 3.70 each time.
Take `CC[C@H](C)[C@H](NC(=O)[C@H](Cc1c[nH]cn1)NC(=O)[C@@H](N)CCC(N)=O)C(=O)N1CCC[C@H]1C(=O)N[C@@H](CCCCN)C(=O)N[C@@H](CC(C)C)C(=O)N1CCC[C@H]1C(=O)N1CCC[C@H]1C(=O)N[C@@H](CCCCN)C(=O)N[C@H](C(=O)N[C@@H](Cc1ccc(O)cc1)C(=O)O)[C@@H](C)O` [Peptide P10] (H-QHIPKLPPKTY-OH; N-terminus and C-terminus assumed): the pKd in assay [1], in [2], in assay [3], in assay [4], in assay [5] and in assay [6] was < 3.70 in each case. The pKd in assay [7], in assay [8], in [9], in [10], in [11] and in assay [12] was < 3.70 in each case.
In the case of `CC[C@H](C)[C@H](N)C(=O)N[C@@H](CO)C(=O)N[C@@H](CC(=O)O)C(=O)N1CCC[C@H]1C(=O)N1CCC[C@H]1C(=O)N[C@@H](CCC(=O)O)C(=O)N[C@@H](CO)C(=O)N1CCC[C@H]1C(=O)N1CCC[C@H]1C(=O)N[C@@H](CC(C)C)C(=O)N[C@@H](CC(C)C)C(=O)N1CCC[C@H]1C(=O)N1CCC[C@H]1C(=O)N[C@@H](CCCNC(=N)N)C(=O)N[C@@H](CCC(=O)O)C(=O)N1CCC[C@H]1C(=O)N[C@H](C(=O)N[C@@H](CCCNC(=N)N)C(=O)N[C@H](C(=O)N1CCC[C@H]1C(=O)N[C@@H](CC(=O)O)C(=O)N[C@H](C(=O)O)C(C)C)[C@@H](C)O)C(C)C` [Peptide P5] (H-ISDPPESPPLLPPREPVRTPDV-OH), the pKd in assay [1] was < 3.70; in assay [2] it was < 3.70; in assay [3], 4.46; in assay [4], < 3.70; in assay [5] it was < 3.70; in [6], < 3.70. Further, the pKd in assay [7] was < 3.70; in assay [8], < 3.70; in assay [9] it was < 3.70; in assay [10] it was < 3.70; in assay [11] it was < 3.70; in assay [12] it was 4.21.
Take `CC(C)C[C@H](NC(=O)[C@H](Cc1c[nH]cn1)NC(=O)[C@H](CC(C)C)NC(=O)[C@@H]1CCCN1C(=O)[C@H](CO)NC(=O)[C@H](CO)NC(=O)[C@@H](N)CO)C(=O)N[C@@H](CCC(N)=O)C(=O)N1CCC[C@H]1C(=O)N1CCC[C@H]1C(=O)N1CCC[C@H]1C(=O)N[C@@H](CC(C)C)C(=O)NCC(=O)N[C@@H](CCCCN)C(=O)N[C@@H](CCCCN)C(=O)O` [Peptide P6] (H-SSSPLHLQPPPLGKK-OH; N-terminus and C-terminus assumed): the pKd in assay [1], in assay [2], in assay [3], in [4], in assay [5] and in assay [6] was < 3.70 each time. Also, the pKd in [7], in [8], in assay [9], in assay [10], in assay [11] and in [12] was < 3.70 in each case.
